Tests used:
Assay in all cases: area under dose-response curve of surviving fraction (unscaled, Aref=0) (surviving fraction x log10(nM)); higher = more resistant
Settings in all cases: exposure time: 5 days; dose range 0.5-1000 nM
[1] = compound: Cc1cn(-c2cc(NC(=O)c3ccc(C)c(Nc4nccc(-c5cccnc5)n4)c3)cc(C(F)(F)F)c2)cn1 [NILOTINIB]
Procedure, shortened: (§1)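 Tumour cell lines in 384-well plates were exposed to eight inhibitor concentrations, from 0.5 to 1000 nM, for five days, and viability was read by CellTiter-Glo luminescence in three screens per line. Signals were normalised to DMSO-only wells, and 3-parameter logistic regression in the drc R package fitted dose-response survival curves to the surviving fractions. Area under the curve is given as the unscaled activity area. That area is taken over log10 dose with Aref = 0.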

[2] = compound: Cn1c(=O)n(-c2ccc(C(C)(C)C#N)cc2)c2c3cc(-c4cnc5ccccc5c4)ccc3ncc21 [BEZ-235]
Procedure, shortened: as §1

[3] = compound: COc1cc2nccc(Oc3ccc(NC(=O)NC4CC4)c(Cl)c3)c2cc1C(N)=O [LENVATINIB]
Procedure, shortened: as §1

[4] = compound: CC/C(=C(\c1ccc(O)cc1)c1ccc(OCCN(C)C)cc1)c1ccccc1 [AFIMOXIFENE]
Procedure, shortened: as §1

[5] = compound: Cc1c(N)nc([C@H](CC(N)=O)NC[C@H](N)C(N)=O)nc1C(=O)N[C@H](C(=O)N[C@H](C)[C@@H](O)[C@H](C)C(=O)N[C@H](C(=O)NCCc1nc(-c2nc(C(=O)NCCC[S+](C)C)cs2)cs1)[C@@H](C)O)[C@@H](OC1OC(CO)C(O)C(O)C1OC1OC(CO)C(O)C(OC(N)=O)C1O)c1cnc[nH]1 [BLEOMYCIN]
Procedure, shortened: as §1

[6] = compound: C[C@H](CN(C)C)Oc1nc(Nc2cc3cccc(Cl)c3cn2)cnc1C#N
Procedure, shortened: as §1

[7] = compound: Cc1ccc(NC(=O)c2ccc(CN3CCN(C)CC3)cc2)cc1Nc1nccc(-c2cccnc2)n1 [IMATINIB]
Procedure, shortened: as §1

[8] = compound: COc1ccc(-c2cc3c(C)nc(N)nc3n([C@H]3CC[C@H](OCCO)CC3)c2=O)cn1
Procedure, shortened: as §1

[9] = compound: C=CCn1c(=O)c2cnc(Nc3ccc(N4CCN(C)CC4)cc3)nc2n1-c1cccc(C(C)(C)O)n1 [MK-1775]
Procedure, shortened: as §1

[10] = compound: CCc1cc(Nc2nccc(-c3c(-c4ccc(OC)c(C(=O)Nc5c(F)cccc5F)c4)nc4ccccn34)n2)c(OC)cc1N1CCC(N2CCN(S(C)(=O)=O)CC2)CC1
Procedure, shortened: as §1

Row | Test System | area under dose-response curve [1] | area under dose-response curve [2] | area under dose-response curve [3] | area under dose-response curve [4] | area under dose-response curve [5] | area under dose-response curve [6] | area under dose-response curve [7] | area under dose-response curve [8] | area under dose-response curve [9] | area under dose-response curve [10]
1 | MDAMB134 BREAST | 2.75 | 2.79 | 3.62 | 3.63 | 2.52 | 2.31 | 3.48 | 2.33 |  | 
2 | MDAMB157 BREAST | 3.49 | 2.72 | 3.03 |  | 2.5 | 2.75 |  | 2.35 | 2.07 | 3.26
3 | MDAMB453 BREAST | 3.15 | 2.25 | 3.12 |  |  | 3.06 | 3.62 | 2.17 | 2.78 | 3.61
4 | MFM223 BREAST | 3.16 | 2.45 | 2.7 | 3.79 | 2.64 |  | 3.93 | 2.27 | 2.48 | 3.77
5 | MG63 BONE | 3.81 | 2.27 | 2.98 |  | 2.35 | 3.49 | 3.51 | 2.06 | 2.87 | 3.27
6 | NCIH441 LUNG |  | 3.03 | 3.46 | 3.62 | 2.86 |  | 3.69 | 2.77 | 2.78 | 3.27
7 | NOS1 BONE | 2.94 | 2.32 | 2.79 | 3.91 | 2.66 | 2.6 |  | 2.25 | 1.79 | 3.75
8 | NY BONE | 3.51 | 2.76 | 3.21 | 3.43 | 2.43 | 2.58 |  | 2.35 | 2.18 | 
9 | PCI30 HEADNECK |  | 2.54 | 3.61 | 3.49 | 2.41 | 2.74 | 3.49 | 2.34 | 2.58 | 3.27
10 | RDES SOFT TISSUE |  |  | 3.93 | 3.94 | 2.68 | 4.28 |  | 2.91 | 2.98 | 3.71
11 | S68 BREAST | 2.73 | 2.14 | 3.45 | 3.23 | 2.99 | 2.49 | 3.6 | 1.84 | 2.17 | 
12 | SAOS2 BONE | 3.18 | 2.74 | 3.65 | 3.87 | 2.59 |  | 3.89 | 2.29 | 2.49 | 3.69
13 | SCC003 HEADNECK | 3.21 | 2.63 | 3.75 |  | 2.6 | 3.46 | 3.7 | 2.7 | 2.83 | 3.47
14 | SCC36 HEADNECK | 3 | 2.98 | 3.67 |  | 2.48 | 3 | 3.55 | 2.62 | 2.66 | 3.23
15 | SCC90 HEADNECK |  | 2.68 | 3.91 |  | 3.23 | 2.62 | 3.71 | 2.3 | 2.22 | 3.49
16 | SG27 HEADNECK | 3.63 | 3.01 | 3.51 | 3.58 | 3.29 | 3.57 | 3.66 | 2.65 |  | 3.63

Row | Test System | area under dose-response curve [1] | area under dose-response curve [2] | area under dose-response curve [3] | area under dose-response curve [4] | area under dose-response curve [5] | area under dose-response curve [6] | area under dose-response curve [7] | area under dose-response curve [8] | area under dose-response curve [9] | area under dose-response curve [10]
17 | SG28 HEADNECK |  | 2.58 | 3.48 |  | 2.97 |  |  | 2.44 | 2.63 | 3.59
18 | SG31 HEADNECK | 3.85 | 2.43 | 3.43 | 3.88 | 2.62 |  |  | 2.18 | 2.93 | 3.44
19 | SG32 HEADNECK | 3.05 | 2.45 | 3.96 |  | 2.56 |  | 3.6 | 2.95 | 2.43 | 3.97
20 | SG43 HEADNECK | 4.68 | 2.72 | 3.03 |  | 2.58 | 2.79 | 3.35 | 1.92 |  | 3.51
21 | SIHA CERVIX | 3.47 | 2.36 | 3.63 | 3.74 |  | 3.45 | 3.68 | 2.34 | 2.93 | 3.53
22 | SJSA1 BONE | 5.57 | 2.51 | 3.51 |  | 2.25 | 5.38 |  | 2.46 | 2.86 | 3.48
23 | SKBR3 BREAST | 2.88 | 2.41 | 3.48 | 3.71 | 2.72 | 3.03 | 3.66 | 1.77 | 2.64 | 
24 | SNU475 LIVER | 3.21 | 2.04 |  |  | 2.51 |  | 3.51 | 2.13 | 2.93 | 3.12
25 | SUM44 BREAST | 3.21 | 2.29 | 3.41 |  | 3.07 | 2.65 |  | 2.6 | 2.54 | 
26 | SUM149 BREAST | 2.88 | 2.39 |  | 3.16 | 1.44 | 2.65 | 3.23 | 2.28 | 2.21 | 3.6
27 | SUM149.B1*.S BREAST | 3.68 | 3.03 | 3.96 | 3.8 | 2.89 |  | 3.85 | 2.71 | 2.74 | 3.62
28 | SUM159 BREAST | 3.57 | 2.52 | 3.64 | 3.67 | 3.01 | 3.44 | 3.7 | 2.51 | 3.08 | 
29 | VCAP PROSTATE | 3.26 | 2.82 |  | 3.49 | 3.21 | 3.1 | 3.67 | 2.35 | 2.4 | 3.37
30 | YAMATO SYNOVIAL |  | 2.84 |  | 4.25 | 3.25 |  |  | 2.19 |  | 4.39
31 | ZR751 BREAST | 3.01 | 2.35 |  | 3.68 | 3.06 | 2.92 |  | 1.71 |  | 3.02
